Results taken from US11180744B2, “Acinetobacter lysins” (priority 2014, dated 2021).
Several values for one entry are separate records, joined by “and”; a condition that tells them apart may be missing. Equal values may be shown once. Read-outs that look alike come from different tables or passages of the source. Where no end group is shown, it is not given here.

Columns and labels:
[1] = test system: A. baumannii strains #1791, S5 and ATCC17978; experiment: In vitro bactericidal activities of peptides (Example 10); format: cell-based
red blood cells (RBC) = experiment: Hemolysis, release of hemoglobin (OD405); details: 80-0.3125 μM; 1 hour at 37° C.; Triton X-100 positive control
Human B-cells = experiment: B cell survival, CellTiter 96 Non-Radioactive Cell Proliferation Assay; details: highest concentration tested (80 μM); 1 hr at 37° C.
[2] = test system: A. baumannii strains #1791 and ATCC17978; experiment: microbe, parasite or virus in culture; details: Acinetobacter baumannii, ATCC17978, 24 h, 37° C.
in vitro = format: cell-based; details: B cell line
B cell line = experiment: in vitro; format: cell-based
[3] = test system: A. baumannii strains #1791 and ATCC17978; details: Mueller-Hinton broth (pH 7.9), 37° C., 24 hour
[4] = test system: A. baumannii strain 1791 biofilm; experiment: Mouse catheter model; format: in vivo, BALB/C mice; details: 250 μl of F307 (1 mg) injected into catheter under the dermis, repeated after 4 hours
Description: Mouse Catheter Model: Several 3 inch section of catheter tubing were seeded (1:1000) with A. baumannii strain 1791. A. baumannii biofilms were formed as described above. The back of twenty BALB/C mice were shaved, their backs were sterilized, and then an incision was made to place a 1 inch section of the catheter with a biofilm already formed under the dermis of the back. The incisions were then stapled shut. After 24 hours, 250 μl of F307 (1 mg) (n=10) or 250 μl control vehicle (n=10) was injected directly into the catheter that was under the dermis of the mouse. The treatment was repeated after 4 hours. After 3 hours the catheters were removed from the mice, and assayed as described in Experiment 4.

A. baumannii = experiment: Survival of mice after lethal injection of A. baumannii; format: in vivo, C57BL/6 mice; details: 1 mg of F307 IP two hours after 10^8 CFU IP; 14 days after infection
Description: Twenty-two C57BL/6 mice were given 10^8 CFU of A. baumannii strain intraperitoneally (IP). Two hours later, two mice were euthanized and organs examine as described below, ten mice injected IP with 1 mg of F307 and ten mice were injected IP with control vehicle.

[5] = test system: A. baumannii clinical isolates; experiment: Crude lysate clearing zones on A. baumannii soft agar plates; details: thirteen A. baumannii clinical isolates
[6] = test system: A. baumannii 1791 biofilm; experiment: In vitro treatment of catheter adherent A. baumannii 1791 biofilm with F307
[7] = pH 7.9, strain #1791, Mueller-Hinton broth (pH 7.9)
[8] = pH 7.9, strain ATCC17978, Mueller-Hinton broth (pH 7.9)

Molecule: P307AE-8: SEQ ID NO: 49: NAKDYKGAAAEFPKWNKAGGRVLAGLVKRRKAEMELFLK (P307AE-8)
- decrease in viable bacteria ([1]; 50 μg/mL, 2 hours, room temperature): ~3.8 log-unit

Molecule: NAKDYKGAAAEFPKWNKAGGRVLAGLVKRRKSQSRESQC [P307SQ-8C]
- integrity of RBCs (hemolysis) (red blood cells (RBC)): not affected
- viability of B cells (Human B-cells): remains the same as the buffer control

Molecule: CC(C)(O/N=C(\C(=O)N[C@@H]1C(=O)N2C(C(=O)[O-])=C(C[n+]3ccccc3)CS[C@H]12)c1csc(N)n1)C(=O)O [Ceftazidime]
- MIC [2, 7]: 250 µg/mL and 457 µM
- MIC [2, 8]: 12 µg/mL and 21.9 µM

Molecule: P307CS-8: SEQ ID NO: 51: NAKDYKGAAAEFPKWNKAGGRVLAGLVKRRKCSQRQSES (P307CS-8)
- activity of P307CS-8 compared with P307SQ-8C ([1]; scrambled last eight amino acids): comparable

Molecule: C[C@H]1COc2c(N3CCN(C)CC3)c(F)cc3c(=O)c(C(=O)O)cn1c23 [Levofloxacin]
- MIC [2, 7]: 6 µg/mL and 16.6 µM
- MIC [2, 8]: ≤ 0.1 µg/mL and 0.3 µM

Molecule: NAKDYKGAAAEFPKWNKAGGRVLAGLVKRRK [P307]
- viability at 5 min, 2 μg (in vitro): 95.2%
- viability at 5 min, 20 μg (in vitro): 97.2%
- viability at 5 min, 200 μg (in vitro): 94.6%
- viability at 0.5 h, 2 μg (in vitro): 76.9%
- viability at 0.5 h, 20 μg (in vitro): 88.6%
- viability at 1 h, 2 μg (in vitro): 89.3%
- viability at 1 h, 20 μg (in vitro): 89.7%
- viability at 1 h, 200 μg (in vitro): 71.4%
- viability at 2 h, 2 μg (in vitro): 92.5%
- viability at 2 h, 20 μg (in vitro): 90.3%
- viability at 2 h, 200 μg (in vitro): 71.9%
- viability at 3 h, 2 μg (in vitro): 93.8%
- viability at 3 h, 20 μg (in vitro): 91%
- viability at 3 h, 200 μg (in vitro): 58.6%
- viability at 24 h, 2 μg (in vitro): 96.3%
- viability at 24 h, 20 μg (in vitro): 94.2%
- viability at 24 h, 200 μg (in vitro): 76.3%
- effect on cell number of a B cell line (B cell line): only a slight effect on cell number

Molecule: SQSRESQC (Ex) [reference compound]
- bactericidal activity of SQSRESQC alone or combined with P307 ([1]; strains #1791 and S5, same molar concentration as 50 μg/mL P307): no activity

Molecule: Polymyxin B [reference compound]
- MIC ([3]; strain #1791): 0.25 μg/mL and 0.19 μM
- MIC ([3]; strain ATCC17978): 0.25 μg/mL and 0.19 μM

B1: F307: phage lysin polypeptide, SEQ ID NO: 1, 16 kDa (protein, listed as Acinetobacter baumannii)
chain: VKTSNPGVDLIKGFEGLRLKAYDDGVGVWTIGFGTIKYPNGVRVKKGDTCTESQAEEYLRNDLVVFESAINRLVKVPLNQNQFDALASFTYNLGEGNLSISTLLKKLNAKDYKGAAAEFPKWNKAGGRVLAGLVKRRKAEMELFLK
- reduction of bacterial counts compared with control [4]: approximately 2 logs
- survival (A. baumannii): 50%
- percent of Acinetobacter strains lysed [5]: about 90%
- drop in the number of colony forming units ([6]; 3-day biofilm on catheter, after 30 minutes of treatment): ~4 log
- CFU ([6]; 15 minutes F307 treatment): 9.0 × 10^4 CFU
- CFU ([6]; 30 minutes F307 treatment): 6.0 × 10^3 CFU
